This is an account of results in PMC6178183, “Development of a HPLC-MS/MS Method to Determine 11 Bioactive Compounds in Tongmai Yangxin Pill and Application to a Pharmacokinetic Study in Rats” (Evidence-based Complementary and Alternative Medicine : eCAM, 2018).

In series [1] the test system is human umbilical vein endothelial cells. Details: method as in doi:10.1039/C6RA19212B. The following applies: human umbilical vein endothelial cells in zebrafish; cited from earlier work.
Details of series [2]: method as in PMID 25943824. The note with it: active ingredients of TMYX with high R values; cited from earlier work.
Series [3] is described as follows: Stability of analytes in rat plasma QC samples under storage conditions. The class given is in vitro ADME. The note with it: n=6, gallic acid, ononin, schisandrin, stilbene glycoside, liquiritigenin, rhein, verbascoside; for Measured Concentration, auto-sampler for 12 h: prepared rat plasma samples; for Measured Concentration, -70°C for 14 days / Measured Concentration, room temperature for 6 h / Measured Concentration, three freeze-thaw cycles: rat plasma. The protocol: Quality control (QC) samples at three concentrations (low, medium, and high concentration) were made up of appropriate mixed standard solutions with blank blood sample as calibration solutions to meet the required concentrations. All the solutions were kept at 4°C.
The stability of analytes in plasma samples was determined by analyzing QC samples of three concentration levels at different conditions: stored at autosampler for 12 h, at room temperature for 6 h, under three freeze-thaw cycles and stored at -70°C for 14 days. All stability studies were measured in six replicates.

A short description of series [4]: Pharmacokinetic study in rats after oral administration of TMYX extract (HPLC-MS/MS of plasma). Type of series: in vivo, Sprague–Dawley rats. The following applies: rat plasma; for AUC(0-inf) / half-life / AUC / k el: male, Sprague-Dawley; for AUC(0-inf) / half-life / AUC / k el / C max1 / T max1 / C max2 / T max2: oral TMYX extract 8.3 g/kg single dose; for AUC(0-inf) / half-life / AUC / k el / C max1 / C max2 / T max2: n=6; for AUC: read-out: AUC (0-tn); for k el: read-out: K e (converted); for peaks in the mean plasma concentration-time profile: oral TMYX extract 8.3 g/kg; for T max1: n=6, mean ± SD; for C max2 / T max2: second peak. On the procedure: The HPLC-MS/MS system consists of an Agilent 1200 high-performance liquid chromatography coupled with an Aglient 6430 series triple quadrupole mass spectrometer with an electrospray ionization (ESI) source. The chromatographic separation was achieved on a CORTECS C18 column (4.6 mm × 150 mm, 2.7 μm), and the column temperature was kept at 30°C. Mobile phases which consisted of 0.1% formic acid in water (A) and acetonitrile (B) were used in the following gradient elution method: 0-10 min, 10%-85% B; 10-13 min, 85%-95% B; 13-19 min, 95%-95% B. The flow rate was set at 0.3 mL/min, and the injection volume was 10 μL. All data were analyzed by Mass Hunter workstation software (Agilent Technologies, USA).
The mass spectrometer was carried out in both positive and negative ionization multiple-reaction monitoring (MRM) mode. The source parameters were as follows: the capillary voltage set at 300 V for positive ionization mode and -300 V for negative ionization mode, the drying gas temperature was 320°C, the flow was 11 L/min, and nebulizing gas pressure was 30 psi.
The plasma (100 μL) was spiked with 20 μL of methanol, 20 μL of the IS (icariin, 1 μg/mL), and 20 μL of formic acid and then vortex-mixed. The mixture was extracted with 800 μL of ethyl acetate by vortex mixing for 5 min at room temperature. After centrifugation at 14,000 rpm for 10 min, the supernatant was collected to a clean tube and evaporated to dryness under a nitrogen stream. The residue was reconstituted in 50 μL of 50% methanol, vortexed for 5 min, and centrifuged at 14,000 rpm for 10 min. Finally, 10 μL supernatant was injected into the LC-MS/MS system for analysis.
Male Sprague–Dawley rats (230-250 g) were obtained from Beijing HFK Experimental Animal Technology Co., Ltd. The rats were maintained under the control environmental conditions and they fasted for 12 h with free access to water before the experiments. TMYX extracts were dissolved in CMC-Na and administrated orally to rats at 8.3 g/kg. The blood samples (200 μL) were collected from the rat fossa orbitalis vein at 0, 0.03, 0.083, 0.17, 0.25, 0.5, 1, 2, 4, 6, 8, 10, 12, 24, 36, and 48 h after oral administration to heparinized tubes. And then the blood samples were centrifuged at 7,000 rpm for 10 min to get the plasma sample immediately. Finally, the plasma obtained was stored at −70°C until analysis. Pharmacokinetic parameters were calculated by the computer program “Drug and Statistics 2.0” (DAS 2.0) (Medical College of Wannan, China).

Details of series [5]: method as in PMID 26771134. The following applies: rat plasma, oral Radix glycyrrhizae or combination of Radix glycyrrhizae and Ramulus cinnamomi; cited from earlier work.
Details of series [6]: method as in PMID 23608243. The following applies: rat dosed processed Radix polygoni multiflori; cited from earlier work.
[7] abbreviates: high QC: spiked 2000 ng/mL glycyrrhizic acid, 1000 liquiritin, 200 emodin, 100 isoliquiritigenin.
Where [8] appears, read: low QC: spiked 20 ng/mL glycyrrhizic acid, 10 liquiritin, 2 emodin, 1 isoliquiritigenin.
Where [9] appears, read: medium QC: spiked 200 ng/mL glycyrrhizic acid, 100 liquiritin, 20 emodin, 10 isoliquiritigenin.

SMILES strings stand for the structures. Where “and” joins values, the source holds several entries; their conditions need not be identical. Identical values can stand only once.

Take `CC(C)=CCc1cc(-c2oc3cc(O)c(CC=C(C)C)c(O)c3c(=O)c2O)ccc1O` [glyasperin A]: the proliferation and angiogenesis entry in series [1] was “promote proliferation and angiogenesis”.

As for `COc1c(CC=C(C)C)c(O)cc2oc(=O)c(-c3ccc(O)cc3O)cc12` [glycycoumarin], the proliferation and angiogenesis result in series [1] is “promote proliferation and angiogenesis”.

`CC1(C)[C@@H](O[C@H]2O[C@H](C(=O)O)[C@@H](O)[C@H](O)[C@H]2O[C@@H]2O[C@H](C(=O)O)[C@@H](O)[C@H](O)[C@H]2O)CC[C@]2(C)[C@H]3C(=O)C=C4[C@@H]5C[C@@](C)(C(=O)O)CC[C@]5(C)CC[C@@]4(C)[C@]3(C)CC[C@@H]12` [glycyrrhizic acid]: the antiinflammatory effects entry in series [2] is recorded as “exert antiinflammatory effects in a dose-dependent manner”. Further, in series [3] (setting [7]), the “Measured Concentration, auto-sampler for 12 h” value is 1884.66 ± 9.26 ng/mL; the “Measured Concentration, -70°C for 14 days” value turned out to be 1834.54 ± 29.34 ng/mL; the “Measured Concentration, room temperature for 6 h” value (shortened to “Measured Concentration … for 6 h”) is 2099.10 ± 8.92 ng/mL; the “Measured Concentration, three freeze-thaw cycles” value was 1869.00 ± 42.55 ng/mL. Further, in series [3] (setting [8]), the “Measured Concentration, auto-sampler for 12 h” value was 19.25 ± 0.34 ng/mL; the “Measured Concentration, -70°C for 14 days” value was determined as 18.77 ± 0.09 ng/mL; the “Measured Concentration … for 6 h” value came out at 20.49 ± 0.79 ng/mL; the “Measured Concentration, three freeze-thaw cycles” value stood at 19.30 ± 0.20 ng/mL. For the same compound, in series [3] (setting [9]), the “Measured Concentration, auto-sampler for 12 h” value worked out at 200.96 ± 3.93 ng/mL; the “Measured Concentration, -70°C for 14 days” value is 200.33 ± 2.98 ng/mL; the “Measured Concentration … for 6 h” value stood at 203.22 ± 3.32 ng/mL; the “Measured Concentration, three freeze-thaw cycles” value came out at 188.63 ± 3.57 ng/mL. In addition, in series [4], the AUC(0-inf) (in general, total exposure, with the tail of the curve extrapolated) is 17300 ± 11000 ng·h/mL; the half-life (in general, how long it takes for the measured level to halve) is 18.2 ± 9.61 h; the area under the curve (AUC) (usually concentration integrated over time) is 12700 ± 5060 ng·h/mL; the k el is 1.39e-05 s⁻¹. In series [4], the “peaks in the mean plasma concentration-time profile” value is given as “double peaks”; the “C max1” value is 351.7 ± 347.4 ng/mL; the “T max1” value was 2.13 h and 2.13 ± 1.44 h; the “C max2” value worked out at 476.1 ± 146.0 ng/mL. The “T max2” value in series [4] was 17.67 h and 17.67 ± 10.31 h. In series [4] (48 h after oral TMYX extract 8.3 g/kg), the “detection in vivo at 48 h” value is on record as “can still be detected in vivo at 48 h”. The “peaks in plasma concentration-time profile” value in series [5] is reported as “One peak”.

For `CC(C)=CCc1c(O)ccc(-c2coc3cc(O)cc(O)c3c2=O)c1O` [licoisoflavone A], the proliferation and angiogenesis result in series [1] is “promote proliferation and angiogenesis”.

Consider `O=C1C[C@@H](c2ccc(O)cc2)Oc2cc(O)ccc21` [liquiritigenin], for which, in series [3] (setting [7]), the “Measured Concentration, auto-sampler for 12 h” value is 92.65 ± 0.68 ng/mL; the “Measured Concentration, -70°C for 14 days” value came out at 91.88 ± 0.86 ng/mL; the “Measured Concentration … for 6 h” value came to 112.69 ± 1.30 ng/mL; the “Measured Concentration, three freeze-thaw cycles” value was determined as 92.59 ± 0.63 ng/mL. In addition, in series [3] (setting [8]), the “Measured Concentration, auto-sampler for 12 h” value was 0.87 ± 0.01 ng/mL; the “Measured Concentration, -70°C for 14 days” value stood at 0.88 ± 0.02 ng/mL; the “Measured Concentration … for 6 h” value was found to be 0.87 ± 0.01 ng/mL; the “Measured Concentration, three freeze-thaw cycles” value is 0.89 ± 0.02 ng/mL. In addition, in series [3] (setting [9]), the “Measured Concentration, auto-sampler for 12 h” value worked out at 8.63 ± 0.23 ng/mL; the “Measured Concentration, -70°C for 14 days” value stood at 9.26 ± 0.08 ng/mL; the “Measured Concentration … for 6 h” value was 10.82 ± 0.58 ng/mL; the “Measured Concentration, three freeze-thaw cycles” value came to 8.99 ± 0.07 ng/mL. Further, in series [4], the AUC(0-inf) stood at 333 ± 142 ng·h/mL, the half-life is 12.7 ± 7.04 h, the exposure (AUC) worked out at 315 ± 130 ng·h/mL and the k el was 0.000139 s⁻¹. Moreover, in series [4], the “peaks in the mean plasma concentration-time profile” value is “double peaks”; the “C max1” value turned out to be 37.8 ± 24.1 ng/mL; the “T max1” value was 0.20 h and 0.20 ± 0.07 h; the “C max2” value turned out to be 21.0 ± 15.3 ng/mL. In addition, the “T max2” value in series [4] is 7.20 h and 7.20 ± 3.35 h. The “peaks in plasma concentration-time profile” value in series [5] is recorded as “One peak”.

Take `Cc1cc(O)c2c(c1)C(=O)c1cc(O)cc(O)c1C2=O` [emodin]: in series [3] (setting [7]), the “Measured Concentration, auto-sampler for 12 h” value was 200.50 ± 11.66 ng/mL; the “Measured Concentration, -70°C for 14 days” value was 185.45 ± 0.98 ng/mL; the “Measured Concentration … for 6 h” value was 207.49 ± 1.27 ng/mL; the “Measured Concentration, three freeze-thaw cycles” value stood at 197.74 ± 5.65 ng/mL. Moreover, in series [3] (setting [8]), the “Measured Concentration, auto-sampler for 12 h” value is 1.93 ± 0.02 ng/mL; the “Measured Concentration, -70°C for 14 days” value was determined as 1.86 ± 0.03 ng/mL; the “Measured Concentration … for 6 h” value was found to be 1.95 ± 0.05 ng/mL; the “Measured Concentration, three freeze-thaw cycles” value was determined as 2.00 ± 0.02 ng/mL. In addition, in series [3] (setting [9]), the “Measured Concentration, auto-sampler for 12 h” value was 19.88 ± 1.81 ng/mL; the “Measured Concentration, -70°C for 14 days” value came out at 18.79 ± 0.18 ng/mL; the “Measured Concentration … for 6 h” value is 21.14 ± 0.99 ng/mL; the “Measured Concentration, three freeze-thaw cycles” value came out at 19.21 ± 0.33 ng/mL. In addition, the “peaks in plasma profile” value in series [6] is on record as “one peak”. Moreover, in series [4], the AUC(0-inf) came out at 561 ± 192 ng·h/mL, the half-life is 4.21 ± 2.63 h, the exposure (AUC) came to 476 ± 121 ng·h/mL and the k el was 0.000108 s⁻¹. In addition, in series [4], the “C max1” value is 88.0 ± 37.5 ng/mL and the “T max1” value was 0.32 ± 0.14 h.

As for `COc1cc2c(c(OC)c1CC=C(C)C)C(=O)[C@H](c1ccc(O)c(CC=C(C)C)c1O)CO2` [licorisoflavan A], the proliferation and angiogenesis entry in series [1] was “promote proliferation and angiogenesis”.
